# Reference: ChEMBL document CHEMBL5465560, “Selectivity Literature for EUbOPEN Chemogenomic Library” (2024)
# What was measured:
# [1] = biological target: T1, SRSF protein kinase 1 (Homo sapiens, UniProt Q96SB4)
# [2] = biological target: Dual specificity protein kinase CLK3 (Homo sapiens, UniProt P49761); test: Selectivity interaction (Radioactive assay (Reaction Biology)) EUB0001046a CLK3
# [3] = biological target: T2, Dual specificity tyrosine-phosphorylation-regulated kinase 2 (Homo sapiens, UniProt Q92630); test: Selectivity interaction (Radioactive assay (Reaction Biology)) EUB0001046a DYRK2
# T2 sequence (Q92630 whole entry): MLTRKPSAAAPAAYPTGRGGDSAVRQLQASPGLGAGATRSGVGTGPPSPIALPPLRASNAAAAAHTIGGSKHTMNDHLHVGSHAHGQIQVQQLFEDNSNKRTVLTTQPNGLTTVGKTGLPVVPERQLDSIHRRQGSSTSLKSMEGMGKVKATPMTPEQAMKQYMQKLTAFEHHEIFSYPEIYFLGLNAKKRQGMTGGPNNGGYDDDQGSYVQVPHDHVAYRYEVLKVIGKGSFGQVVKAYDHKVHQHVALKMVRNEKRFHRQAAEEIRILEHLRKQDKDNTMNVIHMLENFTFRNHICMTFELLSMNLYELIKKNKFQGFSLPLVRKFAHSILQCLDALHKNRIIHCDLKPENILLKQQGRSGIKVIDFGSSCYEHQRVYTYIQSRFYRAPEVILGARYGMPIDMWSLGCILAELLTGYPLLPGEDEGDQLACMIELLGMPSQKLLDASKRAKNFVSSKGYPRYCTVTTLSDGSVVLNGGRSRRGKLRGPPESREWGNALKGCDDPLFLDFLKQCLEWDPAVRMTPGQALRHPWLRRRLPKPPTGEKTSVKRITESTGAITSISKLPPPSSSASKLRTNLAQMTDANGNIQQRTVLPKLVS
# [4] = biological target: T1, SRSF protein kinase 1; remark: listed apart in the source
# [5] = biological target: Dual specificity protein kinase CLK4 (Homo sapiens, UniProt Q9HAZ1); test: Selectivity interaction (Radioactive assay (Reaction Biology)) EUB0001046a CLK4
# Sequence of Dual specificity protein kinase CLK4 (Q9HAZ1 whole entry): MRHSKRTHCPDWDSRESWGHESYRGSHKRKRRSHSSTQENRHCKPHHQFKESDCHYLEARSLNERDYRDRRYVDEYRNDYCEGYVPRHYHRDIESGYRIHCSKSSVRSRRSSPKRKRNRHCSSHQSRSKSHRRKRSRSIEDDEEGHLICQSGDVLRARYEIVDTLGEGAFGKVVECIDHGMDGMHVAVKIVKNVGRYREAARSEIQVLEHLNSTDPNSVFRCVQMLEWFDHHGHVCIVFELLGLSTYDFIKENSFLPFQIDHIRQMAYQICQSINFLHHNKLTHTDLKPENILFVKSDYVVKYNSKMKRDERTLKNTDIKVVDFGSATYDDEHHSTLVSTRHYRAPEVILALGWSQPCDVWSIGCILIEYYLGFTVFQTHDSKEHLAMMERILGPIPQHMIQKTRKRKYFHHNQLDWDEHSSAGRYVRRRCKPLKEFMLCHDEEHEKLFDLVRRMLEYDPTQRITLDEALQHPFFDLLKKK
# [6] = biological target: Dual specificity tyrosine-phosphorylation-regulated kinase 1A (Homo sapiens, UniProt Q13627); test: Selectivity interaction (Radioactive assay (Reaction Biology)) EUB0001046a DYRK1A
# [7] = biological target: SRSF protein kinase 2 (Homo sapiens) (UniProt P78362)
# [8] = biological target: T3, Dual specificity tyrosine-phosphorylation-regulated kinase 3 (Homo sapiens, UniProt O43781); test: Selectivity interaction (Radioactive assay (Reaction Biology)) EUB0001046a DYRK3
# T3 sequence (O43781 whole entry): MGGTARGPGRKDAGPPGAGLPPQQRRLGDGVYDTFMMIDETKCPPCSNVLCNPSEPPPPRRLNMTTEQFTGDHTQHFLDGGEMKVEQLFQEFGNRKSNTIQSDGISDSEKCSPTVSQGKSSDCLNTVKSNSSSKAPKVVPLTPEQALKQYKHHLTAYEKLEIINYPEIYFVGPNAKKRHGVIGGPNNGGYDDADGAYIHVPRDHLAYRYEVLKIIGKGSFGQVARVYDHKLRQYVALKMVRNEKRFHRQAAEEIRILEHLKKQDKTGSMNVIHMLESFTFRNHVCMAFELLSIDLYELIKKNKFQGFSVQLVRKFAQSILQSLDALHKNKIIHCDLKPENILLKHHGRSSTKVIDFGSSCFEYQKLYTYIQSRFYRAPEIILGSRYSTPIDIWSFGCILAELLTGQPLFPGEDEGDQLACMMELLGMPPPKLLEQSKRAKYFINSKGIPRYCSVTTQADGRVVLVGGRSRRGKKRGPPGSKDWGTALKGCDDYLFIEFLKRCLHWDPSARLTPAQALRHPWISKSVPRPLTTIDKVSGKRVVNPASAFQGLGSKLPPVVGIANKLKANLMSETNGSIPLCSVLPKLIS
# [9] = biological target: Dual specificity protein kinase CLK2 (Homo sapiens, UniProt P49760); test: Selectivity interaction (Radioactive assay (Reaction Biology)) EUB0001046a CLK2
# [10] = biological target: Dual specificity tyrosine-phosphorylation-regulated kinase 1B (Homo sapiens, UniProt Q9Y463); test: Selectivity interaction (Radioactive assay (Reaction Biology)) EUB0001046a DYRK1B
# [11] = biological target: Dual specificity protein kinase CLK1 (Homo sapiens, UniProt P49759); test: Selectivity interaction (Radioactive assay (Reaction Biology)) EUB0001046a CLK1
# Sequence of Dual specificity protein kinase CLK1 (P49759 whole entry): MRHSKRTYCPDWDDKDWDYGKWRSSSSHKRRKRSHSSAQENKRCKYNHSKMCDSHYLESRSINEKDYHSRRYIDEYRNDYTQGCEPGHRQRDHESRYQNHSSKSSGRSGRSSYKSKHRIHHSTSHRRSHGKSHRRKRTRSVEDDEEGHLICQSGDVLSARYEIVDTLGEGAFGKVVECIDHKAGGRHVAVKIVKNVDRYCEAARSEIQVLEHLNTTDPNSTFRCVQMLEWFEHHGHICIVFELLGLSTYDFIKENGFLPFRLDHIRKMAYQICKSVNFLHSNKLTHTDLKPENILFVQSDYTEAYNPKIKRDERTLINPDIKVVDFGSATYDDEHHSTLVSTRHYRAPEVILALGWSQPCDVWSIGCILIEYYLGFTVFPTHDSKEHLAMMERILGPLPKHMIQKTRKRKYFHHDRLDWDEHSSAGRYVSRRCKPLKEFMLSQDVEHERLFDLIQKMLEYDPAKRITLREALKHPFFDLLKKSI
# [12] = Selectivity interaction (Kinase panel (cellular selectivity, Bright-Glo proliferation assay in BaF3 Cell line, Promega)) EUB0000678a INSR
# [13] = Selectivity interaction (Kinase panel (cellular selectivity, Bright-Glo proliferation assay in BaF3 Cell line, Promega)) EUB0000678a BMX
# [14] = Selectivity interaction (Kinase panel (cellular selectivity, Bright-Glo proliferation assay in BaF3 Cell line, Promega)) EUB0000678a EPHB1
# [15] = Selectivity interaction (Kinase panel (cellular selectivity, Bright-Glo proliferation assay in BaF3 Cell line, Promega)) EUB0000678a ALK
# [16] = biological target: Non-receptor tyrosine-protein kinase TYK2 (Homo sapiens, UniProt P29597); test: Selectivity interaction (Kinase panel (Enzymatic assay, microfluidic mobility shift readout, Caliper lifesciences, conc. ATP = Km for each kinase)) EUB0000678a TYK2
# [17] = Selectivity interaction (Kinase panel (cellular selectivity, Bright-Glo proliferation assay in BaF3 Cell line, Promega)) EUB0000678a TEK
# [18] = Selectivity interaction (Kinase panel (cellular selectivity, Bright-Glo proliferation assay in BaF3 Cell line, Promega)) EUB0000678a FLT1
# [19] = biological target: Ribosomal protein S6 kinase alpha-1 (Homo sapiens, UniProt Q15418); test: Selectivity interaction (Kinase panel (Enzymatic assay, microfluidic mobility shift readout, Caliper lifesciences, conc. ATP = Km for each kinase)) EUB0000678a RPS6KA1
# [20] = biological target: Tyrosine-protein kinase JAK2 (Homo sapiens, UniProt O60674); test: Selectivity interaction (Kinase panel (Enzymatic assay, microfluidic mobility shift readout, Caliper lifesciences, conc. ATP = Km for each kinase)) EUB0000678a JAK2
# [21] = Selectivity interaction (Kinase panel (cellular selectivity, Bright-Glo proliferation assay in BaF3 Cell line, Promega)) EUB0000678a NTRK2
# [22] = biological target: T4, Interleukin-1 receptor-associated kinase 4 (Homo sapiens, UniProt Q9NWZ3); test: Selectivity interaction (Kinase panel (Enzymatic assay, microfluidic mobility shift readout, Caliper lifesciences, conc. ATP = Km for each kinase)) EUB0000678a IRAK4
# T4 sequence (Q9NWZ3 whole entry): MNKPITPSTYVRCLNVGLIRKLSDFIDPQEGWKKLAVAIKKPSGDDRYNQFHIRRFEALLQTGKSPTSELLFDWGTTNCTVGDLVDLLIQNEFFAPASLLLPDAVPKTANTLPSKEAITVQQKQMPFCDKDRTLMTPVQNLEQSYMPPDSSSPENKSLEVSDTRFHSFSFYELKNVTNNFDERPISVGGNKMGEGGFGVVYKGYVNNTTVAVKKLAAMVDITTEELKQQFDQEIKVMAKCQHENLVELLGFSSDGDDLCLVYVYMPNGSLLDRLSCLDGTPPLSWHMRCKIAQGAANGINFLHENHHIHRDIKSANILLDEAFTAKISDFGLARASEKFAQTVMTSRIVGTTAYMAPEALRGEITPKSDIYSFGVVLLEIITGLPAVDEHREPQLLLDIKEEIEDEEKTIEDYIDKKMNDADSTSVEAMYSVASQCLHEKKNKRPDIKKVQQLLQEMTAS
# [23] = biological target: T5, Calcium/calmodulin-dependent protein kinase type II subunit alpha (Homo sapiens, UniProt Q9UQM7); test: Selectivity interaction (Kinase panel (Enzymatic assay, microfluidic mobility shift readout, Caliper lifesciences, conc. ATP = Km for each kinase)) EUB0000678a CAMK2A
# T5 sequence (Q9UQM7 whole entry): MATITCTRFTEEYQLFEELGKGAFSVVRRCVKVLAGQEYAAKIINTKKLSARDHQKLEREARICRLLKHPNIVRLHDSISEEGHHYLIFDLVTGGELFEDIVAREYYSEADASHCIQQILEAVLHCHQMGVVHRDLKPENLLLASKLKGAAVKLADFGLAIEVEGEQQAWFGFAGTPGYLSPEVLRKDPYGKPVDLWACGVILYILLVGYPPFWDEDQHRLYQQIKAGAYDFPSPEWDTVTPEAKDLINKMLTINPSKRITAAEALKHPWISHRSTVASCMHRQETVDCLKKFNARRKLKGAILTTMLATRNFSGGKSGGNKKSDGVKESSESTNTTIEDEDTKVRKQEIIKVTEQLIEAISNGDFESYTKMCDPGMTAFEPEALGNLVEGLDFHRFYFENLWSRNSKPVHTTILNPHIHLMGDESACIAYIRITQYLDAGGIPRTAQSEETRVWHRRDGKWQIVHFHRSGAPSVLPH
# [24] = biological target: Phosphatidylinositol 3-kinase catalytic subunit type 3 (Homo sapiens, UniProt Q8NEB9); test: Selectivity interaction (Kinase panel (KinaseGlo Luminescent Kinase Assay, Promega)) EUB0000678a PIK3C3
# [25] = Selectivity interaction (Kinase panel (cellular selectivity, Bright-Glo proliferation assay in BaF3 Cell line, Promega)) EUB0000678a MET
# [26] = biological target: Mitogen-activated protein kinase 14 (Homo sapiens, UniProt Q16539); test: Selectivity interaction (Kinase panel (Enzymatic assay, microfluidic mobility shift readout, Caliper lifesciences, conc. ATP = Km for each kinase)) EUB0000678a MAPK14
# Sequence of Mitogen-activated protein kinase 14 (Q16539 whole entry): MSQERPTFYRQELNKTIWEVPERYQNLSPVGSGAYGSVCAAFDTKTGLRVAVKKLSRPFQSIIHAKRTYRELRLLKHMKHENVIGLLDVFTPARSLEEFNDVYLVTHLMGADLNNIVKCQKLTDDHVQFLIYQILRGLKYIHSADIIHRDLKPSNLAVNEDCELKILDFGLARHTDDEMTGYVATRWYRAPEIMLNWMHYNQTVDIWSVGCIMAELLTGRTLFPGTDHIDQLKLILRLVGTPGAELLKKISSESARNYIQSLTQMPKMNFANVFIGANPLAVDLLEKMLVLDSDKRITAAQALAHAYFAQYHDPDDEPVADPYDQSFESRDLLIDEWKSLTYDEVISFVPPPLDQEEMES
# [27] = biological target: T6, Tyrosine-protein kinase SYK (Homo sapiens, UniProt P43405); test: Selectivity interaction (Kinase panel (Enzymatic assay, microfluidic mobility shift readout, Caliper lifesciences, conc. ATP = Km for each kinase)) EUB0000678a SYK
# [28] = Selectivity interaction (Kinase panel (cellular selectivity, Bright-Glo proliferation assay in BaF3 Cell line, Promega)) EUB0000678a KDR
# [29] = biological target: Hepatocyte growth factor receptor (Homo sapiens, UniProt P08581); test: Selectivity interaction (Kinase panel (Enzymatic assay, microfluidic mobility shift readout, Caliper lifesciences, conc. ATP = Km for each kinase)) EUB0000678a MET
# Sequence of Hepatocyte growth factor receptor (P08581 whole entry): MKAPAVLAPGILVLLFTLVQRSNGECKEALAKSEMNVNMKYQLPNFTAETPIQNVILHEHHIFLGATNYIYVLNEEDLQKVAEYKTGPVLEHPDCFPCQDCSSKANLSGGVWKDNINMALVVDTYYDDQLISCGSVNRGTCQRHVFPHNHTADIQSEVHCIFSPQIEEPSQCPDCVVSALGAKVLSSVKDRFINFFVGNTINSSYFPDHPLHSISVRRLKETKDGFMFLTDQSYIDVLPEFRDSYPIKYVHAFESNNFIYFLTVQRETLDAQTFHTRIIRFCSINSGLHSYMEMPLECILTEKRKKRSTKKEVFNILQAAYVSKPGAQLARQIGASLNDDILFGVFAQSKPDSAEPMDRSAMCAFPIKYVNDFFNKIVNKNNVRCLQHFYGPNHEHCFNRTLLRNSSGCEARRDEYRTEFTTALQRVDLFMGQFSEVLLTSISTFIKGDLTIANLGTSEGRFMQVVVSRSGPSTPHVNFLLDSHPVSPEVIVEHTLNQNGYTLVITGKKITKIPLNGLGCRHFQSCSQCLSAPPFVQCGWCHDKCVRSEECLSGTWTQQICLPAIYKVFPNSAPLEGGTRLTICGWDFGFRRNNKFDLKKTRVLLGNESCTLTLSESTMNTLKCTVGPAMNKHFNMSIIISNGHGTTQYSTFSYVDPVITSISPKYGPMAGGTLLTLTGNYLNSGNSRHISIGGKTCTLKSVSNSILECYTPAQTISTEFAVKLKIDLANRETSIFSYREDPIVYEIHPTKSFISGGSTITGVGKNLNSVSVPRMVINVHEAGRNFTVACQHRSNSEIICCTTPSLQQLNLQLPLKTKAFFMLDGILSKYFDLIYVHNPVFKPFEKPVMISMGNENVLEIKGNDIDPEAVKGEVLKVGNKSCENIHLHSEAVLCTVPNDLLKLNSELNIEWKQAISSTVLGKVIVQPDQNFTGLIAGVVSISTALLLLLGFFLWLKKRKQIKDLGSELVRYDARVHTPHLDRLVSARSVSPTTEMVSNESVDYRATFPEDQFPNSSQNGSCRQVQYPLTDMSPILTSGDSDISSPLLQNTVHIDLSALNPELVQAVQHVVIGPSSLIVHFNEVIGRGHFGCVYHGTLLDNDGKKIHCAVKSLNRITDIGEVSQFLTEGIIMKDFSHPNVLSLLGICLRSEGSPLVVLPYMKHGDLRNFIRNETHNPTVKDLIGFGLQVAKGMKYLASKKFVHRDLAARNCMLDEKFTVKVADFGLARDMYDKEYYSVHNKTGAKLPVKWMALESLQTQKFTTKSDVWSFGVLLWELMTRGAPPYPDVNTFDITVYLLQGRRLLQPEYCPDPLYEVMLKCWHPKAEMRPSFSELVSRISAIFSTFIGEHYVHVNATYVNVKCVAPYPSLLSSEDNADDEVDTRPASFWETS
# [30] = Selectivity interaction (Kinase panel (cellular selectivity, Bright-Glo proliferation assay in BaF3 Cell line, Promega)) EUB0000678a LYN
# [31] = biological target: T7, cAMP-dependent protein kinase catalytic subunit alpha (Homo sapiens, UniProt P17612); test: Selectivity interaction (Kinase panel (Enzymatic assay, microfluidic mobility shift readout, Caliper lifesciences, conc. ATP = Km for each kinase)) EUB0000678a PRKACA
# [32] = Selectivity interaction (Kinase panel (cellular selectivity, Bright-Glo proliferation assay in BaF3 Cell line, Promega)) EUB0000678a KDR; remark: listed apart in the source
# [33] = biological target: Serine/threonine-protein kinase mTOR (Homo sapiens, UniProt P42345); test: Selectivity interaction (Kinase panel (KinaseGlo Luminescent Kinase Assay, Promega)) EUB0000678a MTOR
# [34] = Selectivity interaction (Kinase panel (cellular selectivity, Bright-Glo proliferation assay in BaF3 Cell line, Promega)) EUB0000678a FLT4
# [35] = Selectivity interaction (Kinase panel (cellular selectivity, Bright-Glo proliferation assay in BaF3 Cell line, Promega)) EUB0000678a JAK2
# [36] = Selectivity interaction (Kinase panel (cellular selectivity, Bright-Glo proliferation assay in BaF3 Cell line, Promega)) EUB0000678a SRC
# [37] = Selectivity interaction (Kinase panel (cellular selectivity, Bright-Glo proliferation assay in BaF3 Cell line, Promega)) EUB0000678a SYK
# [38] = biological target: Tyrosine-protein kinase JAK1 (Homo sapiens, UniProt P23458); test: Selectivity interaction (Kinase panel (Enzymatic assay, microfluidic mobility shift readout, Caliper lifesciences, conc. ATP = Km for each kinase)) EUB0000678a JAK1
# [39] = Selectivity interaction (Kinase panel (cellular selectivity, Bright-Glo proliferation assay in BaF3 Cell line, Promega)) EUB0000678a RET
# [40] = Selectivity interaction (Kinase panel (cellular selectivity, Bright-Glo proliferation assay in BaF3 Cell line, Promega)) EUB0000678a TYK2
# [41] = Selectivity interaction (Kinase panel (cellular selectivity, Bright-Glo proliferation assay in BaF3 Cell line, Promega)) EUB0000678a ROS1
# [42] = biological target: Cyclin-dependent kinase 2 (Homo sapiens, UniProt P24941); test: Selectivity interaction (Kinase panel (Enzymatic assay, microfluidic mobility shift readout, Caliper lifesciences, conc. ATP = Km for each kinase)) EUB0000678a CDK2
# [43] = biological target: T7, cAMP-dependent protein kinase catalytic subunit alpha; test: Selectivity interaction (Kinase panel (radiometric inhibition assay)) EUB0000651a PRKACA
# [44] = biological target: T5, Calcium/calmodulin-dependent protein kinase type II subunit alpha; test: Selectivity interaction (Kinase panel (radiometric inhibition assay)) EUB0000651a CAMK2A
# [45] = biological target: Protein kinase C alpha type (Homo sapiens, UniProt P17252); test: Selectivity interaction (Kinase panel (radiometric inhibition assay)) EUB0000651a PRKCA
# [46] = biological target: Leukocyte tyrosine kinase receptor (Homo sapiens, UniProt P29376); test: Selectivity interaction (Kinase panel (radiometric inhibition assay)) EUB0000651a LTK
# [47] = biological target: T6, Tyrosine-protein kinase SYK; test: Selectivity interaction (Kinase panel (radiometric inhibition assay)) EUB0000651a SYK
# T1 sequence (Q96SB4 whole entry): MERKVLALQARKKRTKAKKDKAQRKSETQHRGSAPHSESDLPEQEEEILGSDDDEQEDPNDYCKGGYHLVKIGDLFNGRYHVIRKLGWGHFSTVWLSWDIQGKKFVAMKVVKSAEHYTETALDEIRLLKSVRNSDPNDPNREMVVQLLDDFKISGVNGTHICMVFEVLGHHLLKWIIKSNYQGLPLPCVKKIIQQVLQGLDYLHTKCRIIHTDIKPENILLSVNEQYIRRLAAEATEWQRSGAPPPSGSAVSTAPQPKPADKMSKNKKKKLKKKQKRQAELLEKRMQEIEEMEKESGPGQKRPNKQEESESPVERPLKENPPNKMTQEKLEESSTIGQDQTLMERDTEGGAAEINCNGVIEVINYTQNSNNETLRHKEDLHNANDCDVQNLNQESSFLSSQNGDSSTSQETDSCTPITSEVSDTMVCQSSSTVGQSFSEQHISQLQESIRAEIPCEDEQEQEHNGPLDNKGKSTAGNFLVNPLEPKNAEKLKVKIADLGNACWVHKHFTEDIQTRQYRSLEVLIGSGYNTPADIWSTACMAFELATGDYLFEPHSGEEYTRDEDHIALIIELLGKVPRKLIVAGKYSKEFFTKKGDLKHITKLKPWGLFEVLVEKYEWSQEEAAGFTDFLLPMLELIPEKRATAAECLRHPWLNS
# Sequence of Dual specificity protein kinase CLK3 (P49761 whole entry): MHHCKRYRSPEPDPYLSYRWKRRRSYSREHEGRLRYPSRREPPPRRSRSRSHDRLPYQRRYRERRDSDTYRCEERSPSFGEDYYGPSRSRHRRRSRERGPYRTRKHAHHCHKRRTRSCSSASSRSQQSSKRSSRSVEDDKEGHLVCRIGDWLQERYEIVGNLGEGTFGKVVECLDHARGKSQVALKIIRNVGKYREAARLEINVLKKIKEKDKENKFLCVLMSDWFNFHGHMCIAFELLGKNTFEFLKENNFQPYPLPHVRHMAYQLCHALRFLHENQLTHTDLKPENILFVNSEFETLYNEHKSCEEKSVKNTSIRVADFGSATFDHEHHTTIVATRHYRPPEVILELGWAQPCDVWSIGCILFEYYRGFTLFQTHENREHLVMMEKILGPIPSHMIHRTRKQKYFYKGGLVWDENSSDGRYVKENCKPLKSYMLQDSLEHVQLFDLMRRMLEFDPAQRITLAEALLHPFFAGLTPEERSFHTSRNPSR
smiles,measurement,setting,value
CN(c1ncccc1CNc1ccnc(-c2cc3cc(Cl)ccc3[nH]2)n1)S(C)(=O)=O,IC50,[1],> 50 µM
same,IC50,[2],> 10 µM
same,IC50,[3],> 10 µM
same,dTM,[4],0.5 K
same,IC50,[5],> 10 µM
same,IC50,[6],> 10 µM
same,dTM,[7],0.3 K
same,IC50,[8],> 10 µM
same,IC50,[9],> 10 µM
same,IC50,[10],> 10 µM
same,IC50,[11],> 10 µM
CCN1CCN(c2ccc(Nc3cc(N(C)C(=O)Nc4c(Cl)c(OC)cc(OC)c4Cl)ncn3)cc2)CC1 [INFIGRATINIB],IC50,[12],3.37 µM
same,IC50,[13],3.41 µM
same,IC50,[14],3.04 µM
same,IC50,[15],3.08 µM
same,IC50,[16],> 10 µM
same,IC50,[17],2.05 µM
same,IC50,[18],1.51 µM
same,IC50,[19],> 10 µM
same,IC50,[20],> 10 µM
same,IC50,[21],3.14 µM
same,IC50,[22],> 10 µM
same,IC50,[23],> 10 µM
same,IC50,[24],> 9 µM
same,IC50,[25],3.01 µM
same,IC50,[26],> 10 µM
same,IC50,[27],> 10 µM
same,IC50,[28],0.938 µM
same,IC50,[29],> 10 µM
same,IC50,[30],3.02 µM
same,IC50,[31],> 10 µM
same,IC50,[32],1.45 µM
same,IC50,[33],> 9 µM
same,IC50,[34],2.07 µM
same,IC50,[35],2.88 µM
same,IC50,[36],2.97 µM
same,IC50,[37],5.36 µM
same,IC50,[38],> 10 µM
same,IC50,[39],3.35 µM
same,IC50,[40],3.3 µM
same,IC50,[41],3.26 µM
same,IC50,[42],> 10 µM
COc1cc(C)c(Sc2cnc(NC(=O)c3ccc(CNC(C)C(C)(C)C)cc3)s2)cc1C(=O)N1CCN(C(C)=O)CC1 (configuration not stated),IC50,[43],> 50 µM
same,IC50,[44],33.5 µM
same,IC50,[45],24 µM
same,IC50,[46],2.4 µM
same,IC50,[47],> 50 µM
